# Patent publication US6541480B2, “1-aryl-1,8-naphthylidin-4-one derivative as type IV phosphodiesterase inhibitor” (Suntory Limited, priority 1997, dated 2003)
# Counter-ions that a name gives are not always drawn.
# Assays:
# [1] = test system: type IV phosphodiesterase; test: Type IV phosphodiesterase inhibiting activity (3H-cAMP hydrolysis, PDE IV fraction from U937 cells); format: biochemical; settings: PDE IV fraction from human U937 cells, 30° C., 30 minutes
# Description: (1) Method of Measurement of Type IV Phosphodiesterase Inhibiting Activity
# The following assay was used to evaluate the ability of the compound of the present invention to suppress type IV phosphodiesterase, according to Biochemical.
# 1) Type IV phosphodiesterase activity fractions were prepared as follows. Human histiocytic lymphoma cell line U937 was cultured in an RPMI1640 medium containing 10% fetal calf serum to obtain 10^9 cells of U937. The cells were recovered by centrifugation and suspended in 40 ml of buffer A (20 mM bis-tris, 5 mM 2-mercaptoethanol, 2 mM benzamidine, 2 mM EDTA, 0.1 mM 4-(2-aminoethyl)benzensulfonyl hydrochloride, 50 mM sodium acetate, pH=6.5). The cells were broken by a sonication and centrifuged (4° C., 10,000G, 10 minutes) to obtain a supernatent. This was filtered by a 0.45 μm filter to obtain the soluble fraction.
# The soluble fraction obtained was applied into a 1×10 cm DEAE Sepharose column equalibrated with the buffer A. 120 ml of the buffer A containing a linear gradient solution of 0.05 to 1 M sodium acetate was used to separate the phosphodiesterase and recover 24 5-ml fractions. Each of the fractions was measured for the cAMP phosphodiesterase activity.
# 2) The test compound was reacted at a desired concentration in a reaction mixture containing 20 mM tris-HCl (pH 7.5), 1 mM MgCl2, 100 μM EDTA, 330 μg/ml calf serum albumin, 10 μg/ml 5′-nucleotidase, 0.4 μCi ^3H-cAMP ([…] cAMP) and the type IV phosphodiesterase stored solution at 30° C. for 30 minutes. QAE-Sephadex suspended in 10 mM of hepes-Na (pH-7.0) was added to the reaction mixture which was then allowed to stand for 5 minutes, then the supernatant was obtained, QAE-Sephadex was further added, to the supernatant, and was allowed to stand for 5 minutes, then the supernatant was obtained and measured for radioactivity.
# [2] = test system: TNF-α production by LPS stimulated mouse peritoneal macrophages; test: TNF-α production inhibitory activity by LPS stimulated macrophages (ELISA); format: cell-based; settings: LPS 10 μg/ml, 8 hours
# Description: (1) Method of Measurement of TNF-α Production Inhibitory Activity by LPS Stimulated Macrophages
# The following assay was used to evaluate the ability of the compound of the present invention to suppress TNF-α production by LPS stimulated macrophages according to Immuno pharmacol. 29, 121-127 (1995).
# 1) 6 to 10 week old female BALB/c mice were used, 2 ml portions of thioglycolate were intraperitoneally administered, and the abdominal cavities were washed by 10 ml of PBS after 4 days, whereby 1 to 2×10^7 peritoneal cells were obtained per mouse. These were suspended in a hemocyte solution (0.75% ammonium chloride, 17 mM tris-hydrochlorate buffer, pH7.2), centrifuged, then resuspended in an RPMI1640 medium including 10% fetal calf serum and seeded in a 96-well cell culture plate at a density of 1×10^5 cells/50 μl/well. Since these cells adhered strongly to the tissue culture plate and were positive in nonspecific esterase staining, they were used for the test as mouse peritoneal macrophages. Mouse peritoneal macrophages were precultured overnight at 37° C. in 5% CO2 for the experiment.
# 2) E. Coli (serum type 055:B5) derived LPS was dissolved in PBS in a concentration of 1 mg/ml, then sterilized by filtration. The test compound was dissolved in DMSO to make a 1000-fold concentration solution of the final concentration of use. 10 μl of the above LPS stock solution (final concentration 10 μg/ml) and 1 μl of the tested substance stock solution were added and mixed in 0.5 ml of RPMI1640 medium containing 10% fetal calf serum. This was added to the above cells at 50 μl/well and cultured for 8 hours. The cultured supernatant was recovered from each well and the TNF-α concentration was measured by the ELISA method (Cytoscreen® Immunoassay Kit Mouse TNF-α, BioSource International).
Compound,IC50 [1] [nM],IC50 ([2]; Peritoneal macrophage) [nM],IC50 [2] [nM]
"CCn1cc(C(=O)NCCc2ccncc2)c(=O)c2ccc(C)nc21 [Comp. Ex., N-(2-(4-pyridyl)ethyl)-1-ethyl-7-methyl-1,4-dihydro[1,8]naphthylidin-4-one-3-carboxyamide, reference compound]",5200,10000,
"CCOC(=O)c1cn(-c2cccc([N+](=O)[O-])c2)c2ncccc2c1=O [Example 19, Ethyl 1-(3-Nitrophenyl)-1,4-dihydro[1,8]naphthylidin-4-one-3-carboxylate]",930,,
"CCOC(=O)c1cn(-c2cccc(C(C)=O)c2)c2ncccc2c1=O [Example 24, Ethyl 1-(3-Acetophenyl)-1,4-dihydro[1,8]naphthylidin-4-one-3-carboxylate]",600,,
"NC(=O)c1cn(-c2ccc(F)cc2)c2ncccc2c1=O [Example 51, 1-(4-Fluorophenyl)-1,4-dihydro[1,8]naphthylidin-4-one-3-carboxamide]",1400,400,
"CNC(=O)c1cn(-c2ccc(F)cc2)c2ncccc2c1=O [Example 52, 1-(4-Fluorophenyl)-N-methyl-1,4-dihydro[1,8]naphthylidin-4-one-3-carboxamide]",150,,
"CC(C)NC(=O)c1cn(-c2ccc(F)cc2)c2ncccc2c1=O [Example 53, 1-(4-Fluorophenyl)-N-isopropyl-1,4-dihydro[1,8]naphthylidin-4-one-3-carboxamide]",27,10,
"C=CCNC(=O)c1cn(-c2ccc(F)cc2)c2ncccc2c1=O [Example 54, N-allyl-1-(4-fluorophenyl)-1,4-dihydro[1,8]naphthylidin-4-one-3-carboxamide]",35,100,
"CC(C)CNC(=O)c1cn(-c2ccc(F)cc2)c2ncccc2c1=O [Example 55, 1-(4-Fluorophenyl)-N-isobutyl-1,4-dihydro[1,8]naphthylidin-4-one-3-carboxamide]",31,100,
"O=C(NCC1CC1)c1cn(-c2ccc(F)cc2)c2ncccc2c1=O [Example 56, N-cyclopropylmethyl-1-(4-fluorophenyl)-1,4-dihydro[1,8]naohthylidin-4-one-3-carboxamide]",26,,4
"O=C(NC1CCCCC1)c1cn(-c2ccc(F)cc2)c2ncccc2c1=O [Example 57, N-cyclohexyl-1-(4-fluorophenyl)-1,4-dihydro[1,8]naohthylidin-4-one-3-carboxamide]",710,1000,
"O=C(NCCO)c1cn(-c2ccc(F)cc2)c2ncccc2c1=O [Example 58, 1-(4-Fluorothenyl)-N-(2-hydroxyethyl)-1,4-dihydro[1,8]naphthylidin-4-one-3-carboxamide]",420,420,
"COCCNC(=O)c1cn(-c2ccc(F)cc2)c2ncccc2c1=O [Example 59, 1-(4-fluorophenyl)-N-(2-methoxyethyl)-1,4-dihydro[1,8]naphthylidin-4-one-3-carboxamide]",640,,
"O=C(NCc1ccccc1)c1cn(-c2ccc(F)cc2)c2ncccc2c1=O [Example 61, N-benzyl-1-(4-fluorophenyl)-1,4-dihydro[1,8]naphthylidin-4-one-3-carboxamide]",390,1000,
"O=C(NCc1ccccn1)c1cn(-c2ccc(F)cc2)c2ncccc2c1=O [Example 62, 1-(4-Fluorophenyl)-N-(2-pyridyl)methyl-1,4-dihydro[1,8]naphthylidin-4-one-3-carboxamide]",1600,,
"O=C(NCc1cccnc1)c1cn(-c2ccc(F)cc2)c2ncccc2c1=O [Example 63, 1-(4-Fluorophenyl)-N-(3-pyridyl)methyl-1,4-dihydro[1,8]naphthylidin-4-one-3-carboxamide]",1200,,
"O=C(NCc1ccncc1)c1cn(-c2ccc(F)cc2)c2ncccc2c1=O [Example 64, 1-(4-Fluorophenyl)-N-(4-pyridyl)methyl-1,4-dihydro[1,8]naphthylidin-4-one-3-carbdxamide]",120,100,

Compound,IC50 [1] [nM],IC50 ([2]; Peritoneal macrophage) [nM],IC50 [2] [nM]
"O=C(NCCc1ccccc1)c1cn(-c2ccc(F)cc2)c2ncccc2c1=O [Example 65, 1-(4-Fluorophenyl)-N-(2-phenylethyl)-1,4-dihydro[1,8]naphthylidin-4-one-3-carboxamide]",270,600,
"COc1ccccc1NC(=O)c1cn(-c2ccc(F)cc2)c2ncccc2c1=O [Example 76, 1-(4-Fluorohenyl)-N-(2-methoxyphenyl)-1,4-dihydro[1,8]naphthylidin-4-one-3-carboxamide]",500,,
"CCOC(=O)c1cccc(NC(=O)c2cn(-c3ccc(F)cc3)c3ncccc3c2=O)c1 [Example 85, Ethyl 3-[{[1-(4-Fluorophenyl)-1,4-dihydro[1,8]naphthylidin-4-one-3-yl]carbonyl}amino]benzoate]",550,,
"N=C(N)c1cccc(NC(=O)c2cn(-c3ccc(F)cc3)c3ncccc3c2=O)c1 [Example 97, N-(benzamidin-3-yl)-1-(4-fluorophenyl)-1,4-dihydro[1,8]naphthylidin-4-one-3-carboxamide hydrochloride]",470,,
"O=C(Nc1ccccc1-c1ccccc1)c1cn(-c2ccc(F)cc2)c2ncccc2c1=O [Example 100, N-(2-Biphenyl)-1-(4-fluorophenyl)-1,4-dihydro[1,8]naphthylidin-4-one-3-carboxamide]",650,,
"Cc1ccc(-n2cc(C(=O)Nc3ccncc3)c(=O)c3cccnc32)cc1 [Example 120, N-(4-Pyridyl)-1-(4-tolyl)-1,4-dihydro[1,8]naphthylidin-4-one-3-carboxamide]",99,,
"Cc1ccc(-n2cc(C(=O)Nc3c(Cl)cncc3Cl)c(=O)c3cccnc32)cc1 [Example 121, N-(3,5-Dichloroiyridin-4-yl)-1-(4-tolyl)-1,4-dihydro[18]naphthylidin-4-one-3-carboxamide]",3.1,,
"COc1ccc(-n2cc(C(=O)Nc3c(Cl)cncc3Cl)c(=O)c3cccnc32)cc1 [Example 123, N-(3,5-Dichloropyridin-4-yl)-1-(4-methoxyphenyl)-1,4-dihydro[1,8]naphthyldin-4-one-3-carboxamide]",0.6,,
"O=C(Nc1ccncc1)c1cn(-c2ccc(Cl)cc2)c2ncccc2c1=O [Example 124, 1-(4-Chlorophenyl)-N-(4-pyridyl)-1,4-dihydro[1,8]naphthylidin-4-one-3-carboxamide]",110,,
"N=C(N)c1cccc(-n2cc(C(=O)Nc3ccncc3)c(=O)c3cccnc32)c1 [Example 130, 1-(Benzamidin-3-yl)-N-(4-pyridyl)-1,4-dihydro[1,8]naphthylidin-4-one-3-carboxamide]",260,,
"O=C(Nc1cccnc1)c1cn(-c2ccccn2)c2ncccc2c1=O [Example 131, 1-(2-Pyridyl)-N-(3-pyridyl)-1,4-dihydro[1,8]naphthylidin-4-one-3-carboxamide]",590,,
"O=C(Nc1ccncc1)c1cn(-c2ccc(O)nc2)c2ncccc2c1=O [Example 145, 1-(2-Hydroxypyridin-5-yl)-N-(4-pyridyl)-1,4-dihydro[1,8]naphthylidin-4-one-3-carboxamide]",400,,
"O=C(Nc1ccncc1)c1cn(-c2cccc3cccnc23)c2ncccc2c1=O [Example 149, 1-(8-Quinonyl)-N-(4-pyridyl)-1,4-dihydro[1,8]naphthylidin-4-one-3-carboxamide]",940,,
"CC(C)(C)OC(=O)Nc1ncc(-n2cc(C(=O)Nc3ccncc3)c(=O)c3cccnc32)cn1 [Example 150, 1-(2-tert-Butyloxycarbonylaminopyrimidin-5-yl)-N-(4-pyridyl)-1,4-dihydro[1,8]naphthylidin-4-one-3-carboxamide]",,,400
"COc1ccc(C2CNC(=O)C2)cc1OC1CCCC1 (stereo not drawn) [Rolipram, reference compound]",,100,
